Paper PMC9784055, “Meroterpenoids and Steroids from the Marine-Derived Fungus Trametes sp. ZYX-Z-16” (Molecules, 2022)
≈ marks a conversion by molar mass, not a printed value.

Key:
Bacillus subtilis = test system: T1, Bacillus subtilis; experiment: microbe, parasite or virus in culture; parameters: antibacterial 96-well microtiter plate assay, visible growth, 37 °C; conditions: 12 h
T1 construct: ATCC 6633
Text: (§1) Four bacteria (Staphylococcus aureus ATCC6538, Bacillus subtilis ATCC 6633, Escherichia coli ATCC 25922, and Listeria monocytogenes ATCC 1911) were used for antibacterial evaluation for all compounds, referring to the previous method with ampicillin as a positive control. […] Five phytopathogens (Fusarium oxysporum f. sp. cubense, Fusarium spp., Peronophythora litchii, Colletotrichum gloeosporioides, and Hylocereus undatus) were used for antifungal evaluation for all compounds, referring to the previous broth microdilution method with carbendazim as a positive control. […] Each test was performed in triplicate. The inhibitory activity of all compounds against four bacteria (Staphylococcus aureus ATCC6538, Bacillus subtilis ATCC 6633, Escherichia coli ATCC 25922, and Listeria monocytogenes ATCC 1911) was evaluated using the 96-well microtiter plates method.

Escherichia coli = test system: T2, Escherichia coli; experiment: microbe, parasite or virus in culture; parameters: antibacterial 96-well microtiter plate assay, visible growth, 37 °C; conditions: 12 h
T2 construct: ATCC 25922
Text: as §1

Listeria monocytogenes = test system: T3, Listeria monocytogenes; experiment: microbe, parasite or virus in culture; parameters: antibacterial 96-well microtiter plate assay, visible growth, 37 °C; conditions: 12 h
T3 construct: ATCC 1911
Text: as §1

Staphylococcus aureus = test system: T4, Staphylococcus aureus; experiment: microbe, parasite or virus in culture; parameters: antibacterial 96-well microtiter plate assay, visible growth, 37 °C; conditions: 12 h
T4 construct: ATCC 6538
Text: as §1

[1] = test system: Colletotrichum gloeosporioides; experiment: microbe, parasite or virus in culture; parameters: antifungal broth microdilution, visible growth, 28 °C; conditions: 48 h
Protocol: (§2) Four bacteria (Staphylococcus aureus ATCC6538, Bacillus subtilis ATCC 6633, Escherichia coli ATCC 25922, and Listeria monocytogenes ATCC 1911) were used for antibacterial evaluation for all compounds, referring to the previous method with ampicillin as a positive control. The bacteria inhibitory activity of all compounds was observed after 12 h in a constant temperature incubator at 37 °C. Five phytopathogens (Fusarium oxysporum f. sp. cubense, Fusarium spp., Peronophythora litchii, Colletotrichum gloeosporioides, and Hylocereus undatus) were used for antifungal evaluation for all compounds, referring to the previous broth microdilution method with carbendazim as a positive control. The fungal inhibitory activity of all compounds was observed after 48 h in a constant temperature incubator at 28 °C. […] Each test was performed in triplicate. The inhibitory activities of all compounds against five phytopathogenic fungi (Fusarium oxysporum f. sp. cubense, Fusarium spp., Peronophythora litchii, Colletotrichum gloeosporioides, and Hylocereus undatus) were evaluated using the broth microdilution method.

[2] = test system: Fusarium oxysporum f. sp. cubense; experiment: microbe, parasite or virus in culture; parameters: antifungal broth microdilution, visible growth, 28 °C; conditions: 48 h
Protocol: as §2

Peronophythora litchii = experiment: microbe, parasite or virus in culture; parameters: antifungal broth microdilution, visible growth, 28 °C; conditions: Phytophthora litchii, 48 h
Protocol: as §2

Fusarium spp. = experiment: microbe, parasite or virus in culture; conditions: 48 h, read-out: Fusarium spp. MIC
Protocol: as §2, with “triplicate.” for “triplicate. The inhibitory activities of all compounds against five phytopathogenic fungi (Fusarium oxysporum f. sp. cubense, Fusarium spp., Peronophythora litchii, Colletotrichum gloeosporioides, and Hylocereus undatus) were evaluated using the broth microdilution method.”

α-glucosidase = α-glucosidase inhibition assay with p-NPG as substrate; format: biochemical

## CC1(C)S[C@@H]2[C@H](NC(=O)[C@H](N)c3ccccc3)C(=O)N2[C@H]1C(=O)O [Ampicillin]
Bacillus subtilis
  MIC: < 1 µg/mL
Escherichia coli
  MIC: < 1 µg/mL
Listeria monocytogenes
  MIC: < 1 µg/mL
Staphylococcus aureus
  MIC: < 1 µg/mL

## C[C@@H]1Cc2c3c(cc(O)c2C(=O)O1)O[C@@]1(C)[C@@H](O)C[C@H]2C(C)(C)C(=O)CC[C@]2(C)[C@@H]1C3 [compound 7, chrodrimanin H]
Bacillus subtilis
  MIC: > 128 µg/mL
Escherichia coli
  MIC: > 128 µg/mL
Listeria monocytogenes
  MIC: > 128 µg/mL
Staphylococcus aureus
  MIC: > 128 µg/mL
[1]
  MIC: > 128 µg/mL
[2]
  MIC: > 128 µg/mL
Peronophythora litchii
  MIC: > 128 µg/mL
Fusarium spp.
  MIC: > 128 µg/mL

## CC(C)C(C)C=CC(C)C1CCC2C3CC(O)C4=CC(=O)CCC4(C)C3CCC12C (stereo not drawn) [compound 13, ergosta-6α-hydroxy-4,22E-dien-3-one]
Bacillus subtilis
  MIC: > 128 µg/mL
Escherichia coli
  MIC: > 128 µg/mL
Listeria monocytogenes
  MIC: > 128 µg/mL
Staphylococcus aureus
  MIC: > 128 µg/mL
[1]
  MIC: > 128 µg/mL
[2]
  MIC: > 128 µg/mL
Peronophythora litchii
  MIC: > 128 µg/mL
Fusarium spp.
  MIC: > 128 µg/mL

## CO[C@@H]1C[C@H]([C@H](C)/C=C/[C@H](C)C(C)C)[C@@]2(C)CC[C@H]3C(=C12)C=CC1=CC(=O)CC[C@@]13C [compound 16, 15β-methoxy-ergosta-4,6,8(14),22E-tetraene-3-one]
Bacillus subtilis
  MIC: > 128 µg/mL
Escherichia coli
  MIC: > 128 µg/mL
Listeria monocytogenes
  MIC: > 128 µg/mL
Staphylococcus aureus
  MIC: > 128 µg/mL
[1]
  MIC: > 128 µg/mL
[2]
  MIC: > 128 µg/mL
Peronophythora litchii
  MIC: > 128 µg/mL
Fusarium spp.
  MIC: > 128 µg/mL

## CC(C)[C@@H](C)/C=C/[C@@H](C)[C@H]1CC[C@H]2C3=C(CC[C@]12C)[C@@]1(C)CCC(=O)C=C1C=C3 [compound 9, ergosta-4,6,8,22E-tetraene-3-one]
Bacillus subtilis
  MIC: > 128 µg/mL
Escherichia coli
  MIC: > 128 µg/mL
Listeria monocytogenes
  MIC: > 128 µg/mL
Staphylococcus aureus
  MIC: > 128 µg/mL
[1]
  MIC: > 128 µg/mL
[2]
  MIC: > 128 µg/mL
Peronophythora litchii
  MIC: > 128 µg/mL
Fusarium spp.
  MIC: > 128 µg/mL

## CC1=C2O[C@@]3(C[C@]2(C)C(C)=C(C(=O)O)C1=O)[C@@H](C)CC[C@H]1C(C)(C)OC(=O)CC[C@@]13C [compound 2, asnovolin I]
Bacillus subtilis
  MIC: > 128 µg/mL
Escherichia coli
  MIC: > 128 µg/mL
Listeria monocytogenes
  MIC: > 128 µg/mL
Staphylococcus aureus
  MIC: > 128 µg/mL
[1]
  MIC: > 128 µg/mL
[2]
  MIC: > 128 µg/mL
Peronophythora litchii
  MIC: > 128 µg/mL
Fusarium spp.
  MIC: > 128 µg/mL

## COC(=O)Nc1nc2ccccc2[nH]1 [Carbendazim]
[1]
  MIC: < 1 µg/mL
[2]
  MIC: < 1 µg/mL
Peronophythora litchii
  MIC: < 1 µg/mL
Fusarium spp.
  MIC: < 1 µg/mL

## COC(=O)C1=C(C)C2(C)CC3(OC2=C(C)C1=O)C(C)CCC1C(C)(C)OC(=O)CCC13C (stereo not shown) [compound 3, asnovolin C 5′6′-dehydro hydrogen]
Bacillus subtilis
  MIC: > 128 µg/mL
Escherichia coli
  MIC: > 128 µg/mL
Listeria monocytogenes
  MIC: > 128 µg/mL
Staphylococcus aureus
  MIC: > 128 µg/mL
[1]
  MIC: > 128 µg/mL
[2]
  MIC: > 128 µg/mL
Peronophythora litchii
  MIC: > 128 µg/mL
Fusarium spp.
  MIC: > 128 µg/mL

## COC(=O)C1C(=O)C(C)=C2OC3(CC2(C)C1C)C(C)C(O)CC1C(C)(C)OC(=O)CCC13C (stereo not shown) [compound 1, asnovolin H]
Bacillus subtilis
  MIC: > 128 µg/mL
Escherichia coli
  MIC: > 128 µg/mL
Listeria monocytogenes
  MIC: > 128 µg/mL
Staphylococcus aureus
  MIC: > 128 µg/mL
[1]
  MIC: > 128 µg/mL
[2]
  MIC: > 128 µg/mL
Peronophythora litchii
  MIC: > 128 µg/mL
Fusarium spp.
  MIC: > 128 µg/mL

## CC(C)[C@@H](C)/C=C/[C@@H](C)[C@H]1CC(=O)C2=C3C=CC4=CC(=O)CC[C@]4(C)[C@@]3(O)CC[C@@]21C [compound 17, ganodermaside C]
Bacillus subtilis
  MIC: > 128 µg/mL
Escherichia coli
  MIC: > 128 µg/mL
Listeria monocytogenes
  MIC: > 128 µg/mL
Staphylococcus aureus
  MIC: > 128 µg/mL
[1]
  MIC: > 128 µg/mL
[2]
  MIC: > 128 µg/mL
Peronophythora litchii
  MIC: > 128 µg/mL
Fusarium spp.
  MIC: > 128 µg/mL

## C[C@@H]1Cc2c3c(cc(O)c2C(=O)O1)O[C@@]1(C)[C@@H](O)C[C@H]2C(C)(C)C(=O)C=C[C@]2(C)[C@@H]1C3 [compound 6, chrodrimanin E]
Bacillus subtilis
  MIC: > 128 µg/mL
Escherichia coli
  MIC: > 128 µg/mL
Listeria monocytogenes
  MIC: > 128 µg/mL
Staphylococcus aureus
  MIC: > 128 µg/mL
[1]
  MIC: > 128 µg/mL
[2]
  MIC: > 128 µg/mL
Peronophythora litchii
  MIC: > 128 µg/mL
Fusarium spp.
  MIC: > 128 µg/mL

## COC(=O)CC[C@@]1(C)[C@H](C(C)(C)O)CC[C@H](C)[C@@]12C[C@@]1(C)C(=C(C)C(=O)[C@@H](C(=O)OC)[C@@H]1C)O2 [compound 4, asnovolin C]
Bacillus subtilis
  MIC: > 128 µg/mL
Escherichia coli
  MIC: > 128 µg/mL
Listeria monocytogenes
  MIC: > 128 µg/mL
Staphylococcus aureus
  MIC: > 128 µg/mL
[1]
  MIC: > 128 µg/mL
[2]
  MIC: > 128 µg/mL
Peronophythora litchii
  MIC: > 128 µg/mL
Fusarium spp.
  MIC: > 128 µg/mL

## CC1=CC(=O)C(C)=C2O[C@@]3(C[C@]12C)[C@@H](C)CC[C@H]1C(C)(C)[C@@H](O)CC[C@@]13C [compound 5, chermesin A]
Bacillus subtilis
  MIC: > 128 µg/mL
Escherichia coli
  MIC: > 128 µg/mL
Listeria monocytogenes
  MIC: > 128 µg/mL
Staphylococcus aureus
  MIC: 128 µg/mL (≈ 344 µM)
[1]
  MIC: > 128 µg/mL
[2]
  MIC: > 128 µg/mL
Peronophythora litchii
  MIC: > 128 µg/mL
Fusarium spp.
  MIC: > 128 µg/mL

## CC(=O)O[C@@H]1c2c3c(cc(O)c2C(=O)O[C@@H]1C)O[C@]1(C)[C@H](C3)[C@@]2(C)CCC(=O)C(C)(C)[C@@H]2C[C@@H]1O [compound 8, thailandolide B]
Bacillus subtilis
  MIC: > 128 µg/mL
Escherichia coli
  MIC: > 128 µg/mL
Listeria monocytogenes
  MIC: > 128 µg/mL
Staphylococcus aureus
  MIC: > 128 µg/mL
[1]
  MIC: > 128 µg/mL
[2]
  MIC: > 128 µg/mL
Peronophythora litchii
  MIC: > 128 µg/mL
Fusarium spp.
  MIC: > 128 µg/mL

## CC(C)[C@@H](C)/C=C/[C@@H](C)[C@H]1CC[C@@]2(O)C3=CC(=O)C4=CC(=O)CC[C@]4(C)[C@H]3CC[C@]12C [compound 10, 14α-hydroxyergosta-4,7,22E-triene-3,6-dione]
α-glucosidase
  IC50: 111 µM
Bacillus subtilis
  MIC: > 128 µg/mL
Escherichia coli
  MIC: > 128 µg/mL
Listeria monocytogenes
  MIC: > 128 µg/mL
Staphylococcus aureus
  MIC: > 128 µg/mL
[1]
  MIC: > 128 µg/mL
[2]
  MIC: > 128 µg/mL
Peronophythora litchii
  MIC: > 128 µg/mL
Fusarium spp.
  MIC: > 128 µg/mL

## CC(C)[C@@H](C)/C=C/[C@@H](C)[C@H]1C[C@H](O)C2=C3C=CC4=CC(=O)CC[C@]4(C)C3CC[C@@]21C (stereo partly shown) [compound 18, ganodermaside A]
Bacillus subtilis
  MIC: > 128 µg/mL
Escherichia coli
  MIC: > 128 µg/mL
Listeria monocytogenes
  MIC: > 128 µg/mL
Staphylococcus aureus
  MIC: > 128 µg/mL
[1]
  MIC: > 128 µg/mL
[2]
  MIC: > 128 µg/mL
Peronophythora litchii
  MIC: > 128 µg/mL
Fusarium spp.
  MIC: > 128 µg/mL
